This note sets out measurements from PubChem BioAssay AID2202554 (NIEHS Division of Translational Toxicology (DTT)).

Records with an inconclusive call do not appear. The source made the active and inactive calls. How the calls were made is not given here.

The subject of the data set is S. typhimurium/E. coli reverse mutation, colony counts. Description: Bacterial reverse mutation test (aka Ames test) summary data. An outline of the steps:
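Revertant colony counts on plates, compared with untreated controls, after about two days of growth. Exposure with or without liver S9 (rat/hamster/mouse), dose range per strain, 20-min 37° C preincubation or direct plate incorporation. Strains: his⁻ Salmonella, trp⁻ E. coli WP2 uvrA pKM101.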
Background: In the Ames test, an excess of revertant colonies over the control signals mutagenicity.
As for `O=C(O)C(F)(F)C(F)(F)C(F)(F)C(F)(F)C(F)(F)C(F)(F)C(F)(F)C(F)(F)C(F)(F)F`, the outcome is “inactive; negative”.

In the case of `ClC(Cl)(Cl)C(Cl)(Cl)Cl`, the outcome is “inactive; negative”. For the compound `CN(C)c1ccc(N)cc1`, the outcome was “active; positive”. With `CC(=O)OCc1ccc2c(c1)OCO2`, the outcome is “inactive; negative”. With `CC(=O)C1(C)CC2=C(CCCC2(C)C)CC1C` (configuration not stated), the outcome is “inactive; negative”. For the compound `CCCCC(CC)COC(=O)c1ccccc1C(=O)OCC(CC)CCCC` (configuration not stated), the outcome is “inactive; negative”. For the compound `CC(O)COC(C)(C)C` (configuration not stated), the outcome is “active; positive”.

As to `N=C1C=CC(=C(c2ccc(N)cc2)c2ccc(N)cc2)C=C1`, the outcome was “active; positive”. In the case of `CCCN(CCC)S(=O)(=O)c1ccc(C(=O)O)cc1`, the outcome is “inactive; negative”. Then `COc1ccc(C(=O)Nc2ccccc2)cc1[N+](=O)[O-]`, with “active; positive”; and `O=[N+]([O-])c1ccc(CCO)cc1`, with “active; positive”; and `ClC(Cl)(Cl)Cl`, with “inactive; negative”. Consider `C=CC(=O)OCC(CO)(COCC(COC(=O)C=C)(COC(=O)C=C)COC(=O)C=C)COC(=O)C=C`, for which the outcome is “inactive; negative”. Regarding `CC1=CC(=C(c2ccc(N)cc2)c2ccc(N)cc2)C=CC1=N`, the outcome was “active; positive”.

Regarding `O=c1ccc(=O)[nH][nH]1`, the outcome is “inactive; negative”. Regarding `ClCC1CO1` (configuration not stated), the outcome was “active; positive”.

Take `ClC1=C(Cl)C2(Cl)C3C(Cl)C=CC3C1(Cl)C2(Cl)Cl` (configuration not stated): the outcome is “inactive; negative”. Regarding `O=C(O)CSCC(=O)O`, the outcome is “inactive; negative”. Take `O=C1C=C(O)c2ccccc2C1=O`: the outcome is “active; positive”. Take `CC1=CC(=O)CC(C)(C)C1`: the outcome is “inactive; negative”. `Cc1noc(NS(=O)(=O)c2ccc(N)cc2)c1C`: the outcome is “inactive; negative”. Turning to `c1ccc(OP(Oc2ccccc2)Oc2ccccc2)cc1`, the outcome is “inactive; negative”. In the case of `C[C@]12CC[C@@H]3c4ccc(O)cc4CC[C@H]3[C@@H]1CC[C@@H]2O`, the outcome is “inactive; negative”.

Regarding `O=c1[nH]c(=O)n(Cl)c(=O)n1Cl`, the outcome was “inactive; negative”. With `C=Cc1ccccc1Cl`, the outcome is “inactive; negative”.

With `O=[N+]([O-])c1ccc(Nc2ccc(O)cc2)c([N+](=O)[O-])c1`, the outcome is “active; positive”. In the case of `COc1ccc(C2=N[C@H](c3ccc(Cl)cc3)[C@H](c3ccc(Cl)cc3)N2C(=O)N2CCNC(=O)C2)c(OC(C)C)c1`, the outcome was “inactive; negative”. Then `ClC1=C(Cl)C2(Cl)C3C(Cl)C(Cl)CC3C1(Cl)C2(Cl)Cl` (configuration not stated), with “inactive; negative”.

As to `O=[N+]([O-])c1ccc2c(c1)Cc1cccc([N+](=O)[O-])c1-2`, the outcome is “active; positive”. Consider `O=C1c2ccccc2C(=O)c2ccccc21`, for which the outcome was “active; positive”.

On to `Nc1ccc(-c2ccccc2)cc1`, for which the outcome was “active; positive”. Regarding `Cc1cc(O)c2c(c1)C(=O)c1cccc(O)c1C2=O`, the outcome was “active; weakly positive”. With `FCC1CO1` (configuration not stated) the entry was “active; positive”; with `c1cnc2c(c1)ccc1cccnc12`, “inactive; negative”. In the case of `COc1ccc(C=O)cc1OC`, the outcome is “inactive; negative”. Consider `CCC1NC(=O)c2cc(S(N)(=O)=O)c(Cl)cc2N1` (configuration not stated), for which the outcome is “inactive; negative”. For `CC=C(C)C#N`, the outcome is “inactive; negative”. For the compound `CC(=O)NNC(=O)c1ccccn1`, the outcome is “inactive; negative”. As to `c1ccc(Oc2ccccc2)cc1`, the outcome was “inactive; negative”. Take `S=P(N1CC1)(N1CC1)N1CC1`: the outcome is “active; positive”. Consider `O=Nc1ccc(O)cc1`, for which the outcome is “active; weakly positive”. Take `O=C(O)c1ccc(Cl)c(Cl)c1`: the outcome is “inactive; negative”. For `CCCCCCCC(=O)OCC(COC(=O)CCCCCCC)OC(=O)CCCCCCC`, the outcome was “active; positive”.

With `CCC(C)C`, the outcome was “inactive; negative”.

On to `O=Cc1ccccc1C=O`, for which the outcome is “active; positive”. With `C=CC(=O)OCC(CC)(COC(=O)C=C)COC(=O)C=C`, the outcome is “inactive; negative”. Regarding `O=C1c2c(O)cccc2Cc2cccc(O)c21`, the outcome is “inactive; negative”. With `COc1cc([N+](=O)[O-])ccc1N=NC(C(C)=O)C(=O)Nc1ccccc1OC` (configuration not stated), the outcome is “inactive; negative”. For `ClC(Cl)c1ccccc1`, the outcome was “active; positive”. Regarding `CC1CCCO1` (configuration not stated), the outcome is “inactive; negative”.

As for `CCOP(=O)(NC(C)C)Oc1ccc(SC)c(C)c1` (configuration not stated), the outcome is “inactive; negative”. Consider `COC(=O)Nc1nc2ccccc2[nH]1`, for which the outcome was “active; positive”. With `COCC1CCC(CO)CC1` (configuration not stated) the entry was “inactive; negative”. Take `CC(CCC(=O)O)(c1ccc(O)cc1)c1ccc(O)cc1`: the outcome is “inactive; negative”.

As to `NC(=S)Nc1ccccc1`, the outcome is “inactive; negative”. In the case of `O=C(Cl)c1ccccc1[N+](=O)[O-]`, the outcome was “active; positive”. Consider `CCCCCCC=O`, for which the outcome was “inactive; negative”. Take `NO`: the outcome was “active; weakly positive”.

`CCCCCCCC(=O)O`: the outcome is “inactive; negative”. `Oc1c(Cl)c(Cl)c(Cl)c(Cl)c1Cl`: the outcome was “inactive; negative”. For the compound `CCCCC1C(=O)N(c2ccccc2)N(c2ccccc2)C1=O`, the outcome was “inactive; negative”. Take `c1ccc2scnc2c1`: the outcome was “inactive; negative”. Take `CC(C)=CCl`: the outcome is “active; positive”. As to `CCC(C)=O`, the outcome was “inactive; negative”. On to `O=C(NCO)NCO`, for which the outcome was “active; positive”. With `CCc1ccc(N)cc1`, the outcome was “inactive; negative”. As for `C=CCNC(N)=O`, the outcome is “active; positive”. As for `SCCc1cnccn1`, the outcome was “inactive; negative”. For `C=C(C)C#N`, the outcome is “inactive; negative”. Take `C[N+](C)(C)CCCl`: the outcome was “inactive; negative”. In the case of `CC(C)CCON=O`, the outcome was “active; positive”. For `NCCc1ccc(O)c(O)c1`, the outcome is “active; weakly positive”. In the case of `Cc1cccc2c1ccc1ccccc12`, the outcome is “active; positive”.

As for `CCCCCCCCc1ccc(Nc2ccc(CCCCCCCC)cc2)cc1`, the outcome was “inactive; negative”. As to `C1COC1`, the outcome was “active; positive”. As to `CN(C)c1ccccc1`, the outcome is “inactive; negative”.

Turning to `Cc1cc(C)c(C)c(C)c1`, the outcome is “inactive; negative”. Turning to `CNC(=O)c1ccccc1`, the outcome is “inactive; negative”.

As for `NC(=O)NN=Cc1ccc([N+](=O)[O-])o1`, the outcome was “active; positive”. As to `ClCc1ccccc1`, the outcome is “active; weakly positive”. For the compound `Nc1cccc(S(=O)(=O)O)c1`, the outcome was “inactive; negative”.

In the case of `C[Si](C)(C)Cl`, the outcome was “active; weakly positive”.
